Several values for one entry are separate records, joined by “and”; a condition that tells them apart may be missing. Identical values can stand only once. Inconclusive results are not listed.
Test system: CD8F1 mice, subcutaneous mammary adenocarcinoma, T/C%
Assay: NCI In Vivo Anticancer Drug Screen. Data for tumor model Mammary Adenocarcinoma CD8F1 (subcutaneous) in CD8F1
Conditions: higher = larger tumour
How it was run: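 Tumor-bearing mice, transplantable model; readout survival or tumor size; value = treated (T) / vehicle control (C).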

[1] = endpoint: median tumor weight (est.), dose: 1.56 mg/kg/injection, schedule: Q07DX005 (ip), vehicle: saline with Tween-80
[2] = endpoint: median tumor weight (est.), dose: 3.12 mg/kg/injection, schedule: Q07DX005 (ip), vehicle: Klucel (hydroxypropylcellulose) (HPC)
[3] = endpoint: median tumor weight (est.), dose: 3.12 mg/kg/injection, schedule: Q07DX005 (ip), vehicle: saline with Tween-80
[4] = endpoint: median tumor weight (est.), dose: 6.25 mg/kg/injection, schedule: Q07DX005 (ip), vehicle: saline with Tween-80
[5] = endpoint: median tumor weight (est.), dose: 12.5 mg/kg/injection, schedule: Q07DX005 (ip), vehicle: saline with Tween-80
[6] = endpoint: median tumor weight (est.), dose: 6.25 mg/kg/injection, schedule: Q07DX005 (ip), vehicle: Klucel (hydroxypropylcellulose) (HPC)
[7] = endpoint: median tumor weight (est.), dose: 12.5 mg/kg/injection, schedule: Q07DX005 (ip), vehicle: Klucel (hydroxypropylcellulose) (HPC)
[8] = endpoint: median tumor weight (est.), dose: 25.0 mg/kg/injection, schedule: Q07DX005 (ip), vehicle: Klucel (hydroxypropylcellulose) (HPC)
[9] = endpoint: median tumor weight (est.), dose: 50.0 mg/kg/injection, schedule: Q07DX005 (ip), vehicle: Klucel (hydroxypropylcellulose) (HPC)
[10] = endpoint: median tumor weight (est.), dose: 100.0 mg/kg/injection, schedule: Q07DX005 (ip), vehicle: Klucel (hydroxypropylcellulose) (HPC)
[11] = endpoint: median tumor weight (est.), dose: 25.0 mg/kg/injection, schedule: Q07DX005 (ip), vehicle: saline with Tween-80

Structure (SMILES): O=C(C#Cc1ccccc1)c1ccccc1
- T/C (endpoint: median tumor weight (est.), dose: 0.39 mg/kg/injection, schedule: Q07DX005 (ip), vehicle: saline with Tween-80): 64 % of control
- T/C (endpoint: median tumor weight (est.), dose: 0.78 mg/kg/injection, schedule: Q07DX005 (ip), vehicle: saline with Tween-80): 68 % of control
- T/C [1]: 68 % of control
- T/C [2]: 47 % of control
- T/C [3]: 53 % of control
- T/C [4]: 67 % of control
- T/C [5]: 46 % of control

Structure (SMILES): O=C1C(=O)c2ccccc2C(O)=C1CC=C(Cl)Cl
- T/C [6]: 112 % of control
- T/C [7]: 52 % of control
- T/C [8]: 99 % of control
- T/C [9]: 93 % of control
- T/C [10]: 61 % of control

Structure (SMILES): COc1ccc2c(NCCCCCCCCNc3c4ccccc4nc4cc(OC)ccc34)c3ccccc3nc2c1
- T/C (endpoint: median tumor weight (est.), dose: 0.47 mg/kg/injection, schedule: Q07DX005 (ip), vehicle: other): 42 % of control
- T/C (endpoint: median tumor weight (est.), dose: 0.94 mg/kg/injection, schedule: Q07DX005 (ip), vehicle: other): 63 % of control
- T/C (endpoint: median tumor weight (est.), dose: 1.87 mg/kg/injection, schedule: Q07DX005 (ip), vehicle: other): 152 % of control
- T/C (endpoint: median tumor weight (est.), dose: 1.88 mg/kg/injection, schedule: Q07DX005 (ip), vehicle: other): 50 % of control
- T/C (endpoint: median tumor weight (est.), dose: 3.75 mg/kg/injection, schedule: Q07DX005 (ip), vehicle: other): 53 % of control
- T/C (endpoint: median tumor weight (est.), dose: 7.5 mg/kg/injection, schedule: Q07DX005 (ip), vehicle: other): 36 % of control

Structure (SMILES): C(COCCOCC1CO1)OCCOCC1CO1 (stereo unspecified)
- T/C [5]: 69 % of control
- T/C [11]: 91 % of control
- T/C (endpoint: median tumor weight (est.), dose: 50.0 mg/kg/injection, schedule: Q07DX005 (ip), vehicle: saline with Tween-80): 68 % of control
- T/C (endpoint: median tumor weight (est.), dose: 100.0 mg/kg/injection, schedule: Q07DX005 (ip), vehicle: saline with Tween-80): 110 % of control
- T/C (endpoint: median tumor weight (est.), dose: 400.0 mg/kg/injection, schedule: Q07DX005 (ip), vehicle: saline with Tween-80): 112 % of control

Structure (SMILES): CCN(CC)CCCNc1nccc2c(C)c3[nH]c4ccncc4c3cc12
- T/C (endpoint: median tumor weight change, dose: 25.0 mg/kg/injection, schedule: Q01DX001 (ip), vehicle: other): 29 % of control and 32 % of control

Structure (SMILES): CC(=O)Oc1[nH]c(=O)c2cccc3c2c1CCC3
- T/C (endpoint: median tumor weight change, dose: 450.0 mg/kg/injection, schedule: Q01DX001 (ip), vehicle: saline with Tween-80): 155 % of control
- T/C (endpoint: median tumor weight change, dose: 1800.0 mg/kg/injection, schedule: Q01DX001 (ip), vehicle: saline with Tween-80): 99 % of control

Structure (SMILES): c1ccc([Te][Te]c2ccccc2)cc1
- T/C (endpoint: median tumor weight change, dose: 75.0 mg/kg/injection, schedule: Q01DX001 (ip), vehicle: Klucel (hydroxypropylcellulose) (HPC)): 97 % of control
- T/C (endpoint: median tumor weight change, dose: 150.0 mg/kg/injection, schedule: Q01DX001 (ip), vehicle: Klucel (hydroxypropylcellulose) (HPC)): 48 % of control
- T/C (endpoint: median tumor weight change, dose: 300.0 mg/kg/injection, schedule: Q01DX001 (ip), vehicle: Klucel (hydroxypropylcellulose) (HPC)): 34 % of control

Structure (SMILES): Cc1cc(N(CC(C)Br)CC(C)Br)ccc1N=Nc1ccccc1C(=O)O (stereo unspecified)
- T/C [1]: 79 % of control
- T/C [3]: 94 % of control
- T/C [4]: 68 % of control
- T/C [5]: 47 % of control
- T/C [11]: 23 % of control

Structure (SMILES): Cn1cnc([N+](=O)[O-])c1S(=O)(=O)NCN1CCOCC1
- T/C [7]: 103 % of control
- T/C [8]: 164 % of control and 185 % of control
- T/C [9]: 71 % of control
- T/C [10]: 82 % of control and 95 % of control

Structure (SMILES): CC(=O)C1(O)Cc2c(O)c3c(c(O)c2C(OC2CC(N)C(O)C(C)O2)C1)C(=O)c1ccccc1C3=O (stereo unspecified)
- T/C (endpoint: median tumor weight (est.), dose: 0.1 mg/kg/injection, schedule: Q07DX005 (ip), vehicle: saline): 81 % of control
- T/C (endpoint: median tumor weight (est.), dose: 0.2 mg/kg/injection, schedule: Q07DX005 (ip), vehicle: saline): 55 % of control
- T/C (endpoint: median tumor weight (est.), dose: 0.4 mg/kg/injection, schedule: Q07DX005 (ip), vehicle: saline): 48 % of control

Structure (SMILES): C[C@]12CC[C@H](O)CC1=CC[C@@H]1[C@@H]2CC[C@]2(C)C(=O)CC[C@@H]12
- T/C (endpoint: median tumor weight change, dose: 62.5 mg/kg/injection, schedule: Q01DX001 (ip), vehicle: saline with Tween-80): 115 % of control
- T/C (endpoint: median tumor weight change, dose: 250.0 mg/kg/injection, schedule: Q01DX001 (ip), vehicle: saline with Tween-80): 104 % of control
- T/C (endpoint: median tumor weight change, dose: 500.0 mg/kg/injection, schedule: Q01DX001 (ip), vehicle: saline with Tween-80): 90 % of control
- T/C (endpoint: median tumor weight change, dose: 1000.0 mg/kg/injection, schedule: Q01DX001 (ip), vehicle: saline with Tween-80): 70 % of control

Structure (SMILES): CCN(CC)c1ccc2cc(-c3nc4ccccc4n3C)c(=O)oc2c1
- T/C [8]: 62 % of control and 84 % of control
- T/C [9]: 79 % of control
- T/C [10]: 35 % of control
- T/C (endpoint: median tumor weight (est.), dose: 200.0 mg/kg/injection, schedule: Q07DX005 (ip), vehicle: Klucel (hydroxypropylcellulose) (HPC)): 24 % of control
- T/C (endpoint: median tumor weight change, dose: 125.0 mg/kg/injection, schedule: Q01DX001 (ip), vehicle: Klucel (hydroxypropylcellulose) (HPC)): 92 % of control
- T/C (endpoint: median tumor weight change, dose: 250.0 mg/kg/injection, schedule: Q01DX001 (ip), vehicle: Klucel (hydroxypropylcellulose) (HPC)): 80 % of control
- T/C (endpoint: median tumor weight change, dose: 500.0 mg/kg/injection, schedule: Q01DX001 (ip), vehicle: Klucel (hydroxypropylcellulose) (HPC)): 37 % of control

Structure (SMILES): O=C1C=CC(=O)O1 (tested in a mixture with another compound)
- T/C (endpoint: median tumor weight (est.), dose: 25.0 mg/kg/injection, schedule: Q07DX004 (ip), vehicle: saline): 76 % of control
- T/C (endpoint: median tumor weight (est.), dose: 50.0 mg/kg/injection, schedule: Q07DX004 (ip), vehicle: saline): 61 % of control
- T/C (endpoint: median tumor weight (est.), dose: 100.0 mg/kg/injection, schedule: Q07DX004 (ip), vehicle: saline): 40 % of control
- T/C (endpoint: median tumor weight (est.), dose: 200.0 mg/kg/injection, schedule: Q07DX004 (ip), vehicle: saline): 81 % of control
- T/C (endpoint: median tumor weight (est.), dose: 400.0 mg/kg/injection, schedule: Q07DX004 (ip), vehicle: saline): 94 % of control

Structure (SMILES): CN(C)[C@@H]1C(=O)C(C(N)=O)=C(O)[C@@]2(O)C(=O)C3=C(O)c4c(O)ccc(Cl)c4[C@@](C)(O)[C@H]3C[C@@H]12
- T/C (endpoint: median tumor weight change, dose: 31.25 mg/kg/injection, schedule: Q01DX001 (ip), vehicle: suspension in saline): 86 % of control
- T/C (endpoint: median tumor weight change, dose: 62.5 mg/kg/injection, schedule: Q01DX001 (ip), vehicle: suspension in saline): 104 % of control
- T/C (endpoint: median tumor weight change, dose: 125.0 mg/kg/injection, schedule: Q01DX001 (ip), vehicle: suspension in saline): 84 % of control
- T/C (endpoint: median tumor weight change, dose: 250.0 mg/kg/injection, schedule: Q01DX001 (ip), vehicle: suspension in saline): 83 % of control

Structure (SMILES): C[N+](C)(C)c1ncnc2c1ncn2C1CCCO1 (stereo unspecified)
- T/C (endpoint: median tumor weight (est.), dose: 12.5 mg/kg/injection, schedule: Q07DX005 (ip), vehicle: saline): 85 % of control
- T/C (endpoint: median tumor weight (est.), dose: 25.0 mg/kg/injection, schedule: Q07DX005 (ip), vehicle: saline): 89 % of control
- T/C (endpoint: median tumor weight (est.), dose: 50.0 mg/kg/injection, schedule: Q07DX005 (ip), vehicle: saline): 87 % of control
- T/C (endpoint: median tumor weight (est.), dose: 100.0 mg/kg/injection, schedule: Q07DX005 (ip), vehicle: saline): 92 % of control

Structure (SMILES): C/C(=N/NC(N)=S)c1ccc2ccccc2c1
- T/C [3]: 152 % of control
- T/C [4]: 95 % of control and 100 % of control
- T/C [5]: 69 % of control and 72 % of control

Structure (SMILES): COc1cc2cc3c4cc(OC)c(OC)cc4cc[n+]3c(C)c2cc1OC (tested in a mixture with another compound)
- T/C (endpoint: median tumor weight (est.), dose: 100.0 mg/kg/injection, schedule: Q07DX005 (ip), vehicle: suspension in saline): 97 % of control

Structure (SMILES): C1CCC2OCCOCCOC3CCCCC3OCCOCCOC2C1 (stereo unspecified)
- T/C [2]: 90 % of control
- T/C [6]: 55 % of control
- T/C [8]: 70 % of control
- T/C [9]: 83 % of control

Structure (SMILES): NC(=O)c1[nH]nc(C2OC(CO)C(O)C2O)c1O (stereo unspecified)
- T/C (endpoint: median tumor weight (est.), dose: 0.31 mg/kg/injection, schedule: Q07DX005 (ip), vehicle: saline): 123 % of control
- T/C (endpoint: median tumor weight (est.), dose: 0.62 mg/kg/injection, schedule: Q07DX005 (ip), vehicle: saline): 85 % of control
- T/C (endpoint: median tumor weight (est.), dose: 1.25 mg/kg/injection, schedule: Q07DX005 (ip), vehicle: saline): 77 % of control
- T/C (endpoint: median tumor weight (est.), dose: 2.5 mg/kg/injection, schedule: Q07DX005 (ip), vehicle: saline): 28 % of control
- T/C (endpoint: median tumor weight (est.), dose: 5.0 mg/kg/injection, schedule: Q07DX005 (ip), vehicle: saline): 53 % of control
- T/C (endpoint: median tumor weight (est.), dose: 10.0 mg/kg/injection, schedule: Q07DX005 (ip), vehicle: saline): 29 % of control

Structure (SMILES): CC1(O)CC23CC(O)C4(O)C(CC(O)C4(C)C)C(C)(O)C2CCC1C3O (stereo unspecified)
- T/C (endpoint: median tumor weight change, dose: 0.25 mg/kg/injection, schedule: Q01DX001 (ip), vehicle: Klucel (hydroxypropylcellulose) (HPC)): 39 % of control
- T/C (endpoint: median tumor weight change, dose: 0.5 mg/kg/injection, schedule: Q01DX001 (ip), vehicle: Klucel (hydroxypropylcellulose) (HPC)): 73 % of control
